The record followed here is PubChem BioAssay (NCI).

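Dose response: 5 concentrations. Exposure: 48 h. Format: 96-well plates. Endpoint: linear interpolation; highest concentration if not reached. GI50 marks 50% less growth. TGI marks complete inhibition of growth.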 Some results are limits rather than exact numbers.

Some test systems named below: CAKI-1 renal; COLO 205 colon; HL-60(TB) leukemia; HOP-62 NSCLC; HT29 colon; KM12 colon; NCI-H522 lung; RPMI-8226 leukemia; SF-268 CNS; SNB-75 CNS.
Experiment in all cases: NCI tumour cell line growth inhibition, 48 h

For the compound `COc1ccc(OC)c(NC2=NCCO2)c1`, the TGI is 28.8 µM in the experiment with CAKI-1 renal; greater than 100 µM in the experiment with COLO 205 colon; greater than 100 µM in the experiment on HL-60(TB) leukemia; greater than 100 µM in the experiment on HOP-62 NSCLC; greater than 100 µM with HT29 colon; greater than 100 µM in the experiment with KM12 colon. The TGI with NCI-H522 lung, with RPMI-8226 leukemia, with SF-268 CNS and in the experiment with SNB-75 CNS was greater than 100 µM each time.

Turning to `CC(C)(C)c1ccc(O)c(C(c2ccc([N+](=O)[O-])cc2)c2cc(C(C)(C)C)ccc2O)c1`, the TGI with CAKI-1 renal is 2.88 µM; in the experiment on COLO 205 colon, 5.8 µM; in the experiment on HL-60(TB) leukemia, 3.95 µM; in the experiment with HOP-62 NSCLC, 3.39 µM; in the experiment with HT29 colon, 4.47 µM; in the experiment on NCI-H522 lung, 4.32 µM. The TGI stood at 4.98 µM in the experiment on RPMI-8226 leukemia, 3.16 µM in the experiment on SF-268 CNS and 3.9 µM with SNB-75 CNS.

With `O=C1CCCCC/C1=C\c1cccc([N+](=O)[O-])c1`, the TGI is greater than 100 µM with CAKI-1 renal; greater than 100 µM in the experiment on COLO 205 colon; 57 µM with HL-60(TB) leukemia; greater than 100 µM with HOP-62 NSCLC; greater than 100 µM in the experiment on HT29 colon; 56.1 µM in the experiment on KM12 colon. Besides, the TGI in the experiment on RPMI-8226 leukemia is 78.1 µM; in the experiment on SF-268 CNS it was 40.6 µM; in the experiment on SNB-75 CNS, greater than 100 µM.

Consider `N#CCCN(CCC#N)c1ccc(/C=C2\SC(=S)NC2=O)cc1`, for which the TGI in the experiment with CAKI-1 renal is 59.7 µM; with COLO 205 colon it was greater than 100 µM; in the experiment with HL-60(TB) leukemia it was greater than 100 µM; in the experiment with HOP-62 NSCLC, greater than 100 µM; in the experiment with HT29 colon it was greater than 100 µM; in the experiment with KM12 colon, greater than 100 µM. Besides, the TGI in the experiment with NCI-H522 lung, with RPMI-8226 leukemia, in the experiment on SF-268 CNS and with SNB-75 CNS was greater than 100 µM throughout.

Consider `COC(=O)[C@H]1[C@@H](O)[C@@]2(O)c3c(OC)cc(OC)cc3O[C@@]2(c2ccc3c(c2)OCO3)[C@@H]1c1ccccc1`, for which the TGI in the experiment on CAKI-1 renal is 0.264 µM; with COLO 205 colon, 0.0686 µM; in the experiment on HL-60(TB) leukemia, 0.763 µM; in the experiment with HOP-62 NSCLC, 0.68 µM; with HT29 colon it was 0.273 µM; with KM12 colon, 0.113 µM. For the same compound, the TGI was determined as 0.741 µM with NCI-H522 lung, 0.0492 µM in the experiment with RPMI-8226 leukemia and 2.11 µM in the experiment on SF-268 CNS.

Consider `CCOC(=O)C1(C#N)C2(C#N)C(N)=NC(ON=C(C)C)(ON=C(C)C)C12C#N` (configuration not stated), for which the TGI with CAKI-1 renal, in the experiment with COLO 205 colon, in the experiment with HL-60(TB) leukemia, with HOP-62 NSCLC, with HT29 colon and with KM12 colon was greater than 100 µM throughout. Moreover, the TGI with NCI-H522 lung, in the experiment with RPMI-8226 leukemia and in the experiment with SF-268 CNS was greater than 100 µM in each case.

Turning to `CSc1c2c(C)n[nH]c2nn1-c1ccccc1`, the TGI with CAKI-1 renal was 87.4 µM; in the experiment on COLO 205 colon it was greater than 100 µM; in the experiment with HL-60(TB) leukemia it was 93.6 µM; in the experiment on HT29 colon, greater than 100 µM; in the experiment on KM12 colon it was greater than 100 µM; in the experiment on NCI-H522 lung, greater than 100 µM. In addition, the TGI with RPMI-8226 leukemia, with SF-268 CNS and in the experiment with SNB-75 CNS was greater than 100 µM in each case.

For the compound `Cc1c(OCCCOc2ccc3c(=O)cc(-c4ccccc4)oc3c2C)ccc2c(=O)cc(-c3ccccc3)oc12`, the TGI with CAKI-1 renal, in the experiment on HL-60(TB) leukemia, in the experiment on HOP-62 NSCLC, in the experiment on HT29 colon, with KM12 colon and in the experiment on NCI-H522 lung was greater than 100 µM in each case. The TGI in the experiment with RPMI-8226 leukemia and in the experiment with SF-268 CNS was greater than 100 µM throughout.

In the case of `CCNC(=O)NNc1ncnc2c1c(-c1ccc(Cl)cc1)cn2-c1ccc(C)cc1`, the TGI amounted to 51.1 µM with CAKI-1 renal; 29.9 µM with COLO 205 colon; 34.7 µM in the experiment with HL-60(TB) leukemia; 35.2 µM in the experiment on HOP-62 NSCLC; 34 µM in the experiment with HT29 colon; 35 µM in the experiment with KM12 colon. Moreover, the TGI was 38.3 µM with NCI-H522 lung, 39 µM in the experiment on SF-268 CNS and 38.9 µM in the experiment with SNB-75 CNS.

Consider `O=C(OCC1CCCN2CCCCC12)c1cccnc1` (configuration not stated), for which the TGI with CAKI-1 renal, in the experiment with COLO 205 colon, in the experiment with HL-60(TB) leukemia, in the experiment with HT29 colon, in the experiment with KM12 colon and with RPMI-8226 leukemia was greater than 100 µM each time. Besides, the TGI in the experiment with SF-268 CNS and in the experiment with SNB-75 CNS was greater than 100 µM each time.

With `C/C(=N\NC(=O)CC#N)C(CN1CCCCC1)C(c1ccccc1)c1c(O)c2ccccc2oc1=O` (configuration not stated), the TGI in the experiment with CAKI-1 renal is greater than 100 µM; in the experiment on COLO 205 colon it was 32.6 µM; in the experiment with HL-60(TB) leukemia, 63.3 µM; in the experiment on HT29 colon it was greater than 100 µM; in the experiment on KM12 colon, greater than 100 µM; in the experiment with NCI-H522 lung it was greater than 100 µM. Moreover, the TGI in the experiment on RPMI-8226 leukemia, in the experiment with SF-268 CNS and in the experiment with SNB-75 CNS was greater than 100 µM in each case.

For `C=CC(C)(C)C1(CC(OC)OC)C(=O)N(C)c2ccccc21` (configuration not stated), the TGI in the experiment with CAKI-1 renal, in the experiment on COLO 205 colon, in the experiment with HL-60(TB) leukemia, with HOP-62 NSCLC, in the experiment on HT29 colon and in the experiment with KM12 colon was greater than 25 µM throughout. The TGI in the experiment with RPMI-8226 leukemia, with SF-268 CNS and in the experiment on SNB-75 CNS was greater than 25 µM in each case.

For `CNC(=O)c1cc2nc3ccccc3c(=O)n2c2ccccc12`, the TGI in the experiment on CAKI-1 renal, in the experiment with COLO 205 colon, in the experiment on HL-60(TB) leukemia, in the experiment on HOP-62 NSCLC, in the experiment on HT29 colon and in the experiment on KM12 colon was greater than 10 µM throughout. Also, the TGI in the experiment with NCI-H522 lung, in the experiment with RPMI-8226 leukemia and with SF-268 CNS was greater than 10 µM in each case.

As for `C=CCOC(=O)c1c(C)n([O-])c2cc(Cl)c(Cl)cc2[n+]1=O`, the TGI in the experiment on CAKI-1 renal came to 39.6 µM; in the experiment with COLO 205 colon it was 32.6 µM; in the experiment on HL-60(TB) leukemia, 48.7 µM; in the experiment with HOP-62 NSCLC it was 57.6 µM; with HT29 colon, 36.8 µM; in the experiment on KM12 colon it was 84.7 µM. Moreover, the results for the TGI in the experiment with NCI-H522 lung, with RPMI-8226 leukemia and with SF-268 CNS were 28.1 µM, 33.9 µM and 29.5 µM, respectively.

For `C=C1C(=O)[C@]23C[C@H]1C[C@@H](O)[C@H]2[C@]1(COC3=O)[C@@H](OC(C)=O)CC[C@@](C)(COC(C)=O)[C@H]1C=O`, the TGI was 18.8 µM in the experiment on CAKI-1 renal; 16.4 µM in the experiment on COLO 205 colon; 16.6 µM in the experiment with HL-60(TB) leukemia; greater than 50 µM in the experiment with HOP-62 NSCLC; greater than 50 µM with HT29 colon; greater than 50 µM in the experiment with KM12 colon. Also, the results for the TGI with NCI-H522 lung, in the experiment with SF-268 CNS and in the experiment with SNB-75 CNS were 14.6 µM, 43.5 µM and greater than 50 µM, respectively.

As for `COc1cc(OCc2nc3cc(C(F)(F)F)ccc3nc2-c2ccccc2)cc(OC)c1OC`, the TGI with CAKI-1 renal, with COLO 205 colon, with HL-60(TB) leukemia, in the experiment with HT29 colon, in the experiment on KM12 colon and in the experiment with RPMI-8226 leukemia was greater than 100 µM in each case. Further, the TGI in the experiment with SF-268 CNS and in the experiment on SNB-75 CNS was greater than 100 µM in each case.

`N#C/C=c1/c2ccccc2n2nc3ccccc3c12`: the TGI with CAKI-1 renal is greater than 100 µM; in the experiment on COLO 205 colon it was 85.3 µM; in the experiment with HL-60(TB) leukemia it was greater than 100 µM; in the experiment with HOP-62 NSCLC, 44.4 µM; in the experiment with HT29 colon it was greater than 100 µM; in the experiment with KM12 colon it was 68.3 µM. Besides, the TGI in the experiment with NCI-H522 lung was 38 µM; with RPMI-8226 leukemia, greater than 100 µM; with SF-268 CNS it was 34 µM.

In the case of `C[C@]12C(=O)C=CCC1=CC[C@@H]1[C@@H]2[C@H]2CC3(O)C(=O)O[C@@]4(C)[C@H]5C[C@@]6(C)[C@@H]7[C@@]2(O)[C@]1(OC[C@H]6C(=O)O5)O[C@]734` (some centres not stated), the TGI in the experiment with CAKI-1 renal was greater than 100 µM; with COLO 205 colon, greater than 100 µM; in the experiment with HL-60(TB) leukemia, greater than 100 µM; in the experiment with HT29 colon it was greater than 100 µM; in the experiment with KM12 colon it was greater than 100 µM; in the experiment with NCI-H522 lung it was 46.2 µM. Moreover, the TGI with RPMI-8226 leukemia, with SF-268 CNS and in the experiment on SNB-75 CNS was greater than 100 µM throughout.

`Nc1nc2c(c(-c3ccccc3Cl)n1)COC/C2=C\c1ccccc1Cl`: the TGI in the experiment with CAKI-1 renal stood at 31.9 µM; with COLO 205 colon, 30.1 µM; with HL-60(TB) leukemia, 25.5 µM; with HOP-62 NSCLC, 32.2 µM; in the experiment on KM12 colon it was 41.8 µM; in the experiment with NCI-H522 lung, 31 µM. The TGI in the experiment on RPMI-8226 leukemia was determined as 35.2 µM; in the experiment on SF-268 CNS, 34.3 µM; with SNB-75 CNS, 35.3 µM.

Consider `C=CCNc1nc(O)c(/C=C2\C=Nc3ncccc32)s1`, for which the GI50 was 2.22 µM in the experiment on CAKI-1 renal; 2.1 µM in the experiment on HL-60(TB) leukemia; 1.84 µM in the experiment with HOP-62 NSCLC; 3.05 µM in the experiment with HT29 colon; 2.51 µM with KM12 colon; 0.725 µM in the experiment with NCI-H522 lung. Besides, the figures for the GI50 with RPMI-8226 leukemia, in the experiment with SF-268 CNS and in the experiment on SNB-75 CNS were 2.26 µM, 2.1 µM and 1.51 µM, respectively. Moreover, the TGI with CAKI-1 renal was greater than 100 µM; in the experiment with HL-60(TB) leukemia it was 5.27 µM; in the experiment on HOP-62 NSCLC, 5.77 µM; in the experiment on HT29 colon, greater than 100 µM; in the experiment on KM12 colon, 8.23 µM; in the experiment with NCI-H522 lung, 4.85 µM. The TGI is 6.71 µM in the experiment with RPMI-8226 leukemia, 6.92 µM with SF-268 CNS and 2.96 µM in the experiment with SNB-75 CNS.

For `N=S(=O)(c1ccccc1)c1ccccc1`, the TGI in the experiment on CAKI-1 renal, with COLO 205 colon, with HL-60(TB) leukemia, in the experiment on HOP-62 NSCLC, with KM12 colon and in the experiment on NCI-H522 lung was greater than 100 µM each time. In addition, the TGI in the experiment on RPMI-8226 leukemia, in the experiment on SF-268 CNS and in the experiment with SNB-75 CNS was greater than 100 µM in each case.
